In article PMC7519074, “Polar functional group-containing glycolipid CD1d ligands modulate cytokine-biasing responses and prevent experimental colitis” (Scientific Reports, 2020):

What was measured:
mCD1d-Fc fusion protein = target: T1, mCD1d-Fc fusion protein (Mus musculus, UniProt P11609); test: Antigen presenting cell (APC)-free assay for lipid binding to mCD1d-Fc; IL-2 release by 2E10 NKT hybridoma cells; type: cell-based; set-up: unit not given here; conditions: mean ± SEM; for IL-2 production (exact values of IL-2): ligand 10 nM, Fig. 3a, b; for IL-2 production: ligand 100 nM, Fig. 3c, d
T1 construct: Ig (mouse immunoglobulin fusion partner); purchased BD Biosciences
T1 sequence (P11609 22-305 limits assumed): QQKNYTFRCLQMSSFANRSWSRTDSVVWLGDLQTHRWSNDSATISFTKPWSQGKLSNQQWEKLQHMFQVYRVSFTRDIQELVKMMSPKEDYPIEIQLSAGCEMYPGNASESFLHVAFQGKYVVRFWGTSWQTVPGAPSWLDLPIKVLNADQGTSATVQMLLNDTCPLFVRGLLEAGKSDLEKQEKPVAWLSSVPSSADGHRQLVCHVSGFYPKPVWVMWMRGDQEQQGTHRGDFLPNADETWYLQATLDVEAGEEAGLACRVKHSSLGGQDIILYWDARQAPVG
T1 sequence (P01887 21-119 partner): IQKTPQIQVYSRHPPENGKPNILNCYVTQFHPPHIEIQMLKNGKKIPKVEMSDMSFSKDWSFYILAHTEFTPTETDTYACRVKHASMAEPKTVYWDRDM
Experimental: NKT hybridoma 2E10 cells were cultured in RPMI-1640 (NACALAI TESQUE, INC) supplemented with 10% fetal bovine serum (FBS; Biowest), and 1% penicillin–streptomycin (Gibco).
For this assay, 96-well microplates (Bio-one 96-well cell culture plate, Greiner) were coated with mouse CD1d:Ig Fusion protein (BD Biosciences) (0.25 μg/well) in PBS at 37 °C for 24 h. […] After washing, 2E10 NKT hybridoma cells (2.5 × 10^5 cells/well) were added and cultured at 37 °C for 48 h. IL-2 release was measured with an ELISA kit (Affymetrix).

mouse splenocytes = test: Cytokine secretion assay using mouse splenocyte; type: cell-based, C57BL/6 mice; set-up: IFN-γ production / IL-4 production / IL-17A production: unit not given here; conditions: for IL-4 production / IL-17A production / IFN-γ production: 10 nM ligand, 48 h; for IL-4 production: Fig. 4e; for IL-17A production: Fig. 4f; for IFN-γ production: Fig. 4d; for Relative ratio IL-4/IFN-γ of cytokine production compared to α-GalCer / Relative ratio IL-17A/IFN-γ of cytokine production compared to α-GalCer: 1 nM; for Relative ratio IL-4/IFN-γ of cytokine production compared to α-GalCer: Fig. 5a; for Relative ratio IL-17A/IFN-γ of cytokine production compared to α-GalCer: Fig. 5b; for cytokine polarization in words: from relative ratios, Fig. 5
Experimental: Spleen cell suspensions (from C57BL/6 mice) were prepared in complete medium (RPMI 1,640 media supplemented with 10% FBS and 1% penicillin–streptomycin) and seeded into 96-well plates (6.0 × 10^5 cells/well). Lipid ligands were added, and the mixture were incubated at 37 °C for 48 h. IFN-γ, IL-4 and IL-17A release were measured with an ELISA kit (Affymetrix).

| IL-2 production (exact values of IL-2) (mCD1d-Fc fusion protein) | IL-2 production (mCD1d-Fc fusion protein) | SMILES | IL-4 production (mouse splenocytes) | IL-17A production (mouse splenocytes) | IFN-γ production (mouse splenocytes) | Relative ratio IL-4/IFN-γ of cytokine production compared to α-GalCer (mouse splenocytes) | Relative ratio IL-17A/IFN-γ of cytokine production compared to α-GalCer (mouse splenocytes) | cytokine polarization in words (mouse splenocytes) |
| --- | --- | --- | --- | --- | --- | --- | --- | --- |
| 85 ± 26 | – | CCCCCCCCCCCCCC[C@@H](O)[C@@H](O)[C@H](CO[C@H]1O[C@H](CO)[C@H](O)[C@H](O)[C@H]1O)NC(=O)CCCCCCCCCCCNC(=O)NCCCCCCCCCCC [5a] | – | – | – | – | – | – |
| – | 334 ± 19 | CCCCCC/C=C/CCCCCCCCCCCC(=O)N[C@@H](CO[C@H]1O[C@H](CO)[C@H](O)[C@H](O)[C@H]1O)[C@H](O)[C@H](O)CCCCCCCCCCCCCC [8b] | – | – | – | – | – | – |
| 546 ± 87 | – | CCCCCCCCCCCCCC[C@@H](O)[C@@H](O)[C@H](CO[C@H]1O[C@H](CO)[C@H](O)[C@H](O)[C@H]1O)NC(=O)CCCCCCCCCCCN(C)C(=O)CCCCCC [4b] | 743 ± 11 | 2095 ± 190 | 17,753 ± 542 | – | – | – |
| 376 ± 92 | – | CCCCCCCCCCCCCC[C@@H](O)[C@@H](O)[C@H](CO[C@H]1O[C@H](CO)[C@H](O)[C@H](O)[C@H]1O)NC(=O)CCCCCCCCCCCNC(=O)NCCCCC [5b] | 723 ± 73 | 1774 ± 278 | 10,799 ± 950 | – | – | – |
| 74 ± 26 | – | CCCCCCCCCCCCCC[C@@H](O)[C@@H](O)[C@H](CO[C@H]1O[C@H](CO)[C@H](O)[C@H](O)[C@H]1O)NC(=O)CCCCCCCCCCCNCCCCCCC [6b] | 513 ± 11 | 990 ± 101 | 3,764 ± 450 | 18.3 ± 6.8 | 66.7 ± 27.4 | IL-4- and IL-17A-biasing properties |
| – | 925 ± 57 | CCCCCC/C=C\CCCCCCCCCCCC(=O)N[C@@H](CO[C@H]1O[C@H](CO)[C@H](O)[C@H](O)[C@H]1O)[C@H](O)[C@H](O)CCCCCCCCCCCCCC [9b] | – | – | – | – | – | – |
| 424 ± 32 | – | CCCCCCCCCCCCCC[C@@H](O)[C@@H](O)[C@H](CO[C@H]1O[C@H](CO)[C@H](O)[C@H](O)[C@H]1O)NC(=O)CCCCCCCCCCCCC(=O)CCCCCCCCCCCC [7a] | – | – | – | – | – | – |
| – | – | CCCCCCCCCCCCCCCCCCCC(=O)N[C@@H](CO[C@H]1O[C@H](CO)[C@H](O)[C@H](O)[C@H]1O)[C@H](O)[C@H](O)CCCCCCCCCCCCCC [C20:0-α-GalCer, reference compound] | 85 ± 52 | 696 ± 38 | 1,353 ± 731 | – | – | – |
| – | 1556 ± 91 | CCCCCCCCCCCC/C=C\CCCCCCCCCCCC(=O)N[C@@H](CO[C@H]1O[C@H](CO)[C@H](O)[C@H](O)[C@H]1O)[C@H](O)[C@H](O)CCCCCCCCCCCCCC [9a] | – | – | – | – | – | – |
| – | 1626 ± 371 | CCCCCCCCCCCC/C=C/CCCCCCCCCCCC(=O)N[C@@H](CO[C@H]1O[C@H](CO)[C@H](O)[C@H](O)[C@H]1O)[C@H](O)[C@H](O)CCCCCCCCCCCCCC [8a] | – | – | – | – | – | – |
| 600 ± 20 | – | CCCCCCCCCCCCCC[C@@H](O)[C@@H](O)[C@H](CO[C@H]1O[C@H](CO)[C@H](O)[C@H](O)[C@H]1O)NC(=O)CCCCCCCCCCCCC(=O)CCCCCC [7b] | 448 ± 40 | 656 ± 69 | 4,276 ± 261 | 12.7 ± 4.0 | 48.6 ± 15.6 | IL-4- and IL-17A-biasing properties |
